Measured values published in patent US20220096487A1 (priority 2019, published 2022).
pEC50, pIC50: −log10 of the molar value. “And” between values parts separate entries of the source, which are not always exact repeats. Equal entries are not always repeated. Marks after values point to notes of the source that are not given here.

Tests used:
[1] = target: UGT1A9 (Homo sapiens, UniProt O60656); test: In vitro substrate assessment, UGT1A9; assay type: in vitro ADME
[2] = test system: CYP1A2; test: In vitro induction of CYP1A2; assay type: in vitro ADME
[3] = target: CYP2D6 (Homo sapiens, UniProt P10635); test: In vitro inhibition of CYP2D6; assay type: in vitro ADME; conditions: did not inhibit
[4] = test system: INSTI-resistant site-directed mutant HIV-1 viruses; test: Susceptibility against INSTI-resistant site-directed mutant viruses; assay type: cell-based
[5] = Carcinogenicity studies in mice; conditions: two-year study, doses up to 500 mg/kg, highest dose tested
[6] = target: OCT1 (Homo sapiens, UniProt O15245); test: In vitro inhibition of OCT1; assay type: in vitro ADME; conditions: did not inhibit
[7] = target: UGT1A3 (Homo sapiens, UniProt P35503); test: In vitro substrate assessment, UGT1A3; assay type: in vitro ADME
[8] = test system: 13 clinically diverse clade B isolates; test: Viral integrase susceptibility assay using integrase coding region from clinical isolates; assay type: cell-based, HIV-1; conditions: Human immunodeficiency virus 1; 13 clade B isolates
[9] = target: CYP2A6 (Homo sapiens, UniProt P11509); test: In vitro inhibition of CYP2A6; assay type: in vitro ADME; conditions: did not inhibit
[10] = test system: HIV-1 with integrase substitutions; test: Selection of dolutegravir-resistant viruses in cell culture; assay type: cell-based
[11] = test system: HIV-2 clinical isolates; test: Dolutegravir PBMC assays against HIV-2 clinical isolates; assay type: cell-based; conditions: Human immunodeficiency virus 2, three HIV-2 clinical isolates
[12] = target: OATP1B1 (Homo sapiens, UniProt Q9Y6L6); test: In vitro substrate assessment, OATP1B1; assay type: in vitro ADME
[13] = Plasma protein binding in vitro; assay type: in vitro ADME; conditions: human, human plasma proteins, read-out: % Bound to human plasma proteins (converted)
[14] = target: MATE1 (Homo sapiens, UniProt Q96FL8); test: In vitro inhibition of MATE1; assay type: in vitro ADME
[15] = Single-dose mass balance study of [14C] dolutegravir; assay type: in vivo, human
[16] = cited from earlier work
[17] = target: P-gp (Homo sapiens, UniProt P08183); test: In vitro inhibition of P-gp; assay type: in vitro ADME; conditions: did not inhibit
[18] = target: CYP2B6 (Homo sapiens, UniProt P20813); test: In vitro inhibition of CYP2B6; assay type: in vitro ADME; conditions: did not inhibit
[19] = test system: laboratory strains of wild-type HIV-1; test: Antiviral activity against laboratory strains in PBMCs and MT-4 cells; assay type: cell-based; conditions: Human immunodeficiency virus 1, MT4
[20] = Dolutegravir embryo-fetal development study in pregnant rats; assay type: in vivo, rat; conditions: oral up to 1,000 mg/kg daily, gestation Days 6 to 17
[21] = test system: L5178Y mouse lymphoma; test: Mouse lymphoma assay
[22] = In vivo rodent micronucleus assay
[23] = target: CYP2C9 (Homo sapiens, UniProt P11712); test: In vitro inhibition of CYP2C9; assay type: in vitro ADME; conditions: did not inhibit
[24] = target: CYP1A2 (Homo sapiens, UniProt P05177); test: In vitro inhibition of CYP1A2; assay type: in vitro ADME; conditions: did not inhibit
[25] = test system: HIV; test: Antiviral activity in combination with other antiviral agents; assay type: cell-based
[26] = target: multidrug resistance protein (MRP)2 (Homo sapiens, UniProt Q92887); test: In vitro inhibition of MRP2; assay type: in vitro ADME; conditions: did not inhibit
[27] = test system: HIV-1 clinical isolates (group M clades A-G, group O); test: Antiviral activity in cell culture against panel of HIV-1 clinical isolates; assay type: cell-based; conditions: Human immunodeficiency virus 1; 3 in each group of M [clades A-G], and 3 in group O
[28] = Population pharmacokinetic analyses; assay type: in vivo, human
[29] = Dolutegravir rat pre/post-natal development study; assay type: in vivo; conditions: relative to human exposure at the RHD
From the text: In the rat pre/post-natal development study, decreased body weight of the developing offspring was observed during lactation at a maternally toxic dose (approximately 32 times human exposure at the RHD).

[30] = target: OATP1B3 (Homo sapiens, UniProt Q9NPD5); test: In vitro substrate assessment, OATP1B3; assay type: in vitro ADME
[31] = target: renal OCT2 (Homo sapiens, UniProt O15244); test: In vitro inhibition of renal OCT2; assay type: in vitro ADME
Sequence of renal OCT2 (O15244 whole entry): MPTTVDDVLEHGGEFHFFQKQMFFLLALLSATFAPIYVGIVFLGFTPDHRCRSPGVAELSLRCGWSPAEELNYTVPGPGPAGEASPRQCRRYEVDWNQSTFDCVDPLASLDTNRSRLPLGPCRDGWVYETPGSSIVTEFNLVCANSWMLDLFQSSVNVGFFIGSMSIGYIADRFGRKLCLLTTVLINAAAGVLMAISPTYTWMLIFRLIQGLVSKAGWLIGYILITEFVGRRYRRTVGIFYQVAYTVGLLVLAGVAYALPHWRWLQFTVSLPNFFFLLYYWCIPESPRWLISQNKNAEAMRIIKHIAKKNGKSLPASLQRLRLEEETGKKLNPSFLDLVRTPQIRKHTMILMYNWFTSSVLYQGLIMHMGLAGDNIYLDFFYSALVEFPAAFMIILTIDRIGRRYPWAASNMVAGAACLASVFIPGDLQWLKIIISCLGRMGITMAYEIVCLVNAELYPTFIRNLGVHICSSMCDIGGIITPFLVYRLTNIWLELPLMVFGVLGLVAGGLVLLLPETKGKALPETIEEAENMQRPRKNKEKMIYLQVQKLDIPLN

Sequence of MATE1 (Q96FL8 whole entry): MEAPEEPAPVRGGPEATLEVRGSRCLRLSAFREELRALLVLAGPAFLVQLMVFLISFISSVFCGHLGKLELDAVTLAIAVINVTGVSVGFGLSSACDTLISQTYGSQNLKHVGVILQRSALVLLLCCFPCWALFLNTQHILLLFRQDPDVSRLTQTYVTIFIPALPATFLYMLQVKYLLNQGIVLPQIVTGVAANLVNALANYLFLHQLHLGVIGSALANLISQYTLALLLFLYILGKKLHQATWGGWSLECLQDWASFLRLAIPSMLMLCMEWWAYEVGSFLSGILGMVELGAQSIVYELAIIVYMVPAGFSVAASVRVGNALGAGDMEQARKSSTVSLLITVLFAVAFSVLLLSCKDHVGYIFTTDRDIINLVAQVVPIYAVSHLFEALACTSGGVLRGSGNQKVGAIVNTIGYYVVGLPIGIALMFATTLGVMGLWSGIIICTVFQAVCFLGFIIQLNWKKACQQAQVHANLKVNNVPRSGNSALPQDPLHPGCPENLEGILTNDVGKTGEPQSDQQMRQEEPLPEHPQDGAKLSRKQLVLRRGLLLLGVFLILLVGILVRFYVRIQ
Sequence of CYP2A6 (P11509 whole entry): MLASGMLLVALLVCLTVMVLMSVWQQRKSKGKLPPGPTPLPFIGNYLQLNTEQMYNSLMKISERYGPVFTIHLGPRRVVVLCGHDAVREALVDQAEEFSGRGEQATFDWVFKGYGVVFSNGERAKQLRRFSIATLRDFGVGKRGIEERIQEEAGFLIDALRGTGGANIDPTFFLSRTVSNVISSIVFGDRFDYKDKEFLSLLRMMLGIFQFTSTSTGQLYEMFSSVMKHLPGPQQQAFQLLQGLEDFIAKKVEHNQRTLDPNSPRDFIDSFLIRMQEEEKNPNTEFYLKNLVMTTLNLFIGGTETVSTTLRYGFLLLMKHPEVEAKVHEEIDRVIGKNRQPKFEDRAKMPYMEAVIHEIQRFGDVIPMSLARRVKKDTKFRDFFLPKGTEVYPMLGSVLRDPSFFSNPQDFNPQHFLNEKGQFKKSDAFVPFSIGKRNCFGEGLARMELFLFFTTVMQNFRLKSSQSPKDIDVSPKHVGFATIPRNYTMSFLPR
Sequence of CYP2D6 (P10635 whole entry): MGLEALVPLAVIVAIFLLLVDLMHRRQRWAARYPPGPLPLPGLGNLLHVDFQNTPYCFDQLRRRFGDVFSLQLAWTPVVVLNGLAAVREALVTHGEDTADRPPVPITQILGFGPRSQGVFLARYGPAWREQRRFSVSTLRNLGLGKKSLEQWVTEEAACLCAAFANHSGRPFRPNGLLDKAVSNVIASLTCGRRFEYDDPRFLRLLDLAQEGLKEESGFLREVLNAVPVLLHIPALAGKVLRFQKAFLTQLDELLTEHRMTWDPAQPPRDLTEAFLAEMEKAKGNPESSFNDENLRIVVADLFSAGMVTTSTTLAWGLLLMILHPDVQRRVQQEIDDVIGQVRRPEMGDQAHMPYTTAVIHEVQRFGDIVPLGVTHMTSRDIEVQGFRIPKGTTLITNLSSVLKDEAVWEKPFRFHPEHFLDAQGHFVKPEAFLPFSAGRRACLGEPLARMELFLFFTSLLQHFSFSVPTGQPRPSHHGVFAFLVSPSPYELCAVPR
Sequence of OATP1B1 (Q9Y6L6 whole entry): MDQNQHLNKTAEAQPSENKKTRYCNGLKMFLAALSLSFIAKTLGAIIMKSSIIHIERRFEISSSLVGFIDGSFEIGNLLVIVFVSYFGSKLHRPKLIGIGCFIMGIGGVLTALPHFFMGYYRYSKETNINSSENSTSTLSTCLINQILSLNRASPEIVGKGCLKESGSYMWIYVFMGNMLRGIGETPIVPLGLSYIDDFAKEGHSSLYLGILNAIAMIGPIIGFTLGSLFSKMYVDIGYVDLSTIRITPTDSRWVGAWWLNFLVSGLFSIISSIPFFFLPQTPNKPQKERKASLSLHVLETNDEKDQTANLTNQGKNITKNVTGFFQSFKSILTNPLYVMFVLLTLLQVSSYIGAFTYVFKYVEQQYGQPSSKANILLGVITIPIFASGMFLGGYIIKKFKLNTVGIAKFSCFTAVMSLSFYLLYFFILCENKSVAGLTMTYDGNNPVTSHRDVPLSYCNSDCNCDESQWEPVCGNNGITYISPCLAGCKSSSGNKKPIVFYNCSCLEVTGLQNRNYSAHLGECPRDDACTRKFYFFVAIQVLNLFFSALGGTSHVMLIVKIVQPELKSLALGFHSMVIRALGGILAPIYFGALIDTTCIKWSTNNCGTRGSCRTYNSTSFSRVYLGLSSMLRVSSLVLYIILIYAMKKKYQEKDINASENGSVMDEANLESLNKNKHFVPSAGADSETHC
Sequence of OCT1 (O15245 whole entry): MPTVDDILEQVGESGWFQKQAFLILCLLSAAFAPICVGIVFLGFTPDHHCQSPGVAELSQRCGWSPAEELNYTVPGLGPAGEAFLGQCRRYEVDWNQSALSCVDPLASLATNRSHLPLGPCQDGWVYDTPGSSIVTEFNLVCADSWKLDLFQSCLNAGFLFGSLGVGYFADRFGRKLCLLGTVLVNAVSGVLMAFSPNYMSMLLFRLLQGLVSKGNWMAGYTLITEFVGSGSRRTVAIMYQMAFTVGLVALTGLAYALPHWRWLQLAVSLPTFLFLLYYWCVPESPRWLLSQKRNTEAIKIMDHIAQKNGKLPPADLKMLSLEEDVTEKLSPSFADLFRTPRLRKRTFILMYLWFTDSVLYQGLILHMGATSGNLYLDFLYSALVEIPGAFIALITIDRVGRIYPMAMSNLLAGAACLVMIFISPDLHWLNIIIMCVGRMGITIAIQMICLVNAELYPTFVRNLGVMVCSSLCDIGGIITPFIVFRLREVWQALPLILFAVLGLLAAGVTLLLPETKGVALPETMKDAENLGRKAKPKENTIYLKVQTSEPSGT
Sequence of CYP2C9 (P11712 whole entry): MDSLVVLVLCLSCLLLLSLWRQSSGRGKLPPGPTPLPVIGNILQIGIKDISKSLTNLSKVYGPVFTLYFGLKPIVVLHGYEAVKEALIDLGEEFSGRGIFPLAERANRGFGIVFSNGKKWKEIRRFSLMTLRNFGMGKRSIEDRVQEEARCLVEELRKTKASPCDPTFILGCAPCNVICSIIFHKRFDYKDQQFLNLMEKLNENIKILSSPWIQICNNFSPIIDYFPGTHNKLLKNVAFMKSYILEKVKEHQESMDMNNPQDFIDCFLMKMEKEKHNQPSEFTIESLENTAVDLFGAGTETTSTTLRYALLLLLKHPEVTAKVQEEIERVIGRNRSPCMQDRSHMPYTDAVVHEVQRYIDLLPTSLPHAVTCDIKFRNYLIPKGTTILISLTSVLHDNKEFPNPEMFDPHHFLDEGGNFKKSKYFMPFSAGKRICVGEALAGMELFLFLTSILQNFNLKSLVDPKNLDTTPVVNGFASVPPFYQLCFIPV
Sequence of CYP1A2 (Homo sapiens, UniProt P05177) (P05177 whole entry): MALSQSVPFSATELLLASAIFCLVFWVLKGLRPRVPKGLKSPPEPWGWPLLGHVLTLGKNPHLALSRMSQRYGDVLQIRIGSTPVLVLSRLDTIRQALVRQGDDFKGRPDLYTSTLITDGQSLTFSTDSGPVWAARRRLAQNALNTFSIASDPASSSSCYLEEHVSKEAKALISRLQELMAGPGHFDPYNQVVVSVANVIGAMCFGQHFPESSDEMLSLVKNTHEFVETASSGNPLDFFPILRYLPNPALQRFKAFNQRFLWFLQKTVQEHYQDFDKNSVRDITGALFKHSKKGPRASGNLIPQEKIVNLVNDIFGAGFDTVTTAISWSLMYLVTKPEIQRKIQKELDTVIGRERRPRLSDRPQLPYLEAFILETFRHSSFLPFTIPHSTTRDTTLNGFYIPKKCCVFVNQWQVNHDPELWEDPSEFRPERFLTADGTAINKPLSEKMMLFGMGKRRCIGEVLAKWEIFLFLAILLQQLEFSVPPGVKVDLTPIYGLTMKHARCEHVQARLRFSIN
Sequence of UGT1A9 (O60656 26-530): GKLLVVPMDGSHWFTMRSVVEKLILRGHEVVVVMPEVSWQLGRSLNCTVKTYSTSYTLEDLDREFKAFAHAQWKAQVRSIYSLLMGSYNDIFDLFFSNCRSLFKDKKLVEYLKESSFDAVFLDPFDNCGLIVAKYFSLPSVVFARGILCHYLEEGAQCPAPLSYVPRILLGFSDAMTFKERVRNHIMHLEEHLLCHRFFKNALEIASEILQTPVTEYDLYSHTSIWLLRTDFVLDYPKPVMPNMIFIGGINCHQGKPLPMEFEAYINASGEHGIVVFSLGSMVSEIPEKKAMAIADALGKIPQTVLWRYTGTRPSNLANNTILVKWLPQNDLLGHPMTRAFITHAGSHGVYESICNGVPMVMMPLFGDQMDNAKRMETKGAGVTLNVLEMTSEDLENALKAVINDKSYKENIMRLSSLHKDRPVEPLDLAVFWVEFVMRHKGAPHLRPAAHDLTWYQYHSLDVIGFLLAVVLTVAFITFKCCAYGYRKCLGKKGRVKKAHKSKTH

C[C@@H]1CCO[C@H]2Cn3cc(C(=O)NCc4ccc(F)cc4F)c(=O)c(O)c3C(=O)N12 [Dolutegravir, dolutegravir]
Substrate of UGT1A9 [1]: substrate
Induction of CYP1A2 [2]: did not induce
pIC50 [3]: < 4.30
Decrease in dolutegravir susceptibility from reference ([4]; multiple substitutions T66K/L74M, E92Q/N155H, G140C/Q148R, G140S/Q148H, R or K, Q148R/N155H, T97A/G140S/Q148, E138/G140/Q148): > 2 fold
Decrease in dolutegravir susceptibility from reference ([4]; single INSTI-resistance substitutions T66K, I151L, and S153Y): > 2 fold
AUC exposure multiple of human (50 mg once daily) with no significant increases in drug-related neoplasms [5]: approximately 20 fold
pIC50 [6]: < 4.30
Substrate of UGT1A3 [7]: substrate
pEC50 [8]: 9.28
pIC50 [9]: < 4.30
Decreased susceptibility to dolutegravir ([10]; G118R): 10 fold
Decreased susceptibility to dolutegravir ([10]; substitutions E92Q, S153F or Y, G193E or R263K): up to 4 fold
pEC50 [11]: 9.21 to 10.05
Substrate of OATP1B1 [12]: not a substrate
fraction unbound [13]: ~0.01
pIC50 [14]: 5.20
% of dose excreted as total 14C in feces ([15]; single dose): 64%
% of dose excreted as total 14C in urine ([15]; single dose): 31^b %
% of dose excreted as unchanged drug in feces ([15]; single dose): 53%
% of dose excreted as unchanged drug in the urine ([15]; single-dose mass balance study of [14C] dolutegravir): <1^b %
Neural tube defects, % of births ([16]; mothers exposed to dolutegravir-containing regimens at the time of conception, 4 of 426 births): 0.94%
Neural tube defect in infants ([16]; women who started dolutegravir during pregnancy (n=2,812)): No infant
pIC50 [17]: < 4.30
pIC50 [18]: < 4.30
EC50 [19]: 0.5 nM to 2.1 nM and 0.00021 µg/mL to 0.00085 µg/mL
Effects on embryo-fetal development [20]: No adverse effects
Genotoxicity/mutagenicity, mouse lymphoma assay [21]: not genotoxic
Genotoxicity, in vivo rodent micronucleus assay [22]: not genotoxic
pIC50 [23]: < 4.30
pIC50 [24]: < 4.30
Antagonism with tested anti-HIV agents [25]: Neither dolutegravir nor lamivudine were antagonistic
pIC50 [26]: < 4.30
pEC50 [27]: 8.67 to 10.70
Effect of age on pharmacokinetics ([28]; in vivo): no clinically relevant effect
Effect of gender and race on pharmacokinetics ([28]; studies with the individual components): no clinically relevant effect
Exposure multiple of maternally toxic dose with decreased body weight of developing offspring during lactation [29]: approximately 32 times
Substrate of OATP1B3 [30]: not a substrate
pIC50 [31]: 5.71
